Counter-ions that a name gives are not always drawn. Like-named read-outs stand apart in the source and are kept apart here.
Key:
[1] = test system: gel-filtered human thrombocytes; test: Inhibition of the aggregation of gel-filtered human thrombocytes following stimulation with ADP or thrombin (Test method 1); type: cell-based; conditions: 1 mg/ml fibrinogen, 37° C., GFP from 2-4 donors
Method: As a functional test, measurement is made of the inhibition of the aggregation of gel-filtered human thrombocytes, following stimulation with ADP or thrombin, by the compounds according to the invention.
For this purpose, human thrombocytes were isolated from platelet-rich plasma (PRP) by gel filtration on Sepharose 2 B. The resulting suspension of gel-filtered platelets (GFP), which contained 3×10^8 platelets/ml, was activated in the presence of 1 mg/ml of fibrinogen either with 10 μM ADP or with 0.1 U/ml thrombin, and stirred in an aggregometer (PAP 4, Biodata, Hatboro, Penna., USA) at 37° C. and at 1000 revolutions per minute. The maximum increase in the translucency is taken as a measure of the aggregation. The test substances were added to the GFP at 37° C. and 2 min before activating with ADP or thrombin.

[2] = molecular target: T1, isolated fibrinogen receptor (glycoprotein IIb/IIIa) (Homo sapiens, UniProt P05106+P08514); test: Inhibition of 125I-fibrinogen binding to the isolated, immobilized receptor (glycoprotein IIb/IIIa) (Test method 3); conditions: isolated receptor immobilized in microtitre plates
T1 construct: isolated from human thrombocytes and immobilized in microtitre plates; from tissue; host or cells: human thrombocytes (platelets), receptor isolated
T1 sequence (P08514 32-887 limits assumed): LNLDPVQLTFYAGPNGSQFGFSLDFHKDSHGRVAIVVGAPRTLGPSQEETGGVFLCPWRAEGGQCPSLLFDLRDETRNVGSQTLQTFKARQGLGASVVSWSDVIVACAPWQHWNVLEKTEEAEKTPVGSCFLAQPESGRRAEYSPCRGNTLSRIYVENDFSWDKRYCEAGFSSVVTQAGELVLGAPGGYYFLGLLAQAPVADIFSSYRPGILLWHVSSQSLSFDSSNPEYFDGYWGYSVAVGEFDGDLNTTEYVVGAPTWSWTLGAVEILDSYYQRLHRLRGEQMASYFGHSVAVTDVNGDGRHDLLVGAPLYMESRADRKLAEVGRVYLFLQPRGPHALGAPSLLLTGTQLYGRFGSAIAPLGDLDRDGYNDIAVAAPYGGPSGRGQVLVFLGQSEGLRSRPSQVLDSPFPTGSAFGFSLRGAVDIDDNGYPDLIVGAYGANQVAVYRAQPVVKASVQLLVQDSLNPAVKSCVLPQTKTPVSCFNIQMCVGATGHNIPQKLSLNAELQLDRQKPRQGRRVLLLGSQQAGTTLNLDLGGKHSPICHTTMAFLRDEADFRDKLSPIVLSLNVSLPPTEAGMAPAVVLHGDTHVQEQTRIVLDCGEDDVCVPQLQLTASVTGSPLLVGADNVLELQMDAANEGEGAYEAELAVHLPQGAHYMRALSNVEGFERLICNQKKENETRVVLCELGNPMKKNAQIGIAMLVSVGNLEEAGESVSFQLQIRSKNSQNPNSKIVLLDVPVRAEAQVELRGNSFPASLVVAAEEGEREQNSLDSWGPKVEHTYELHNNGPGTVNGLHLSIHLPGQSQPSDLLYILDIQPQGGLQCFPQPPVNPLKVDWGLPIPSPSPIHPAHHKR
T1 sequence (P08514 891-1039 partner limits assumed): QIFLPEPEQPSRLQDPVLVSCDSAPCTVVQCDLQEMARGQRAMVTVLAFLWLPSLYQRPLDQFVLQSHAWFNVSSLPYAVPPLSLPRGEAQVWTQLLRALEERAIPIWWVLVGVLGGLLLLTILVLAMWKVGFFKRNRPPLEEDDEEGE
T1 sequence (P05106 27-788): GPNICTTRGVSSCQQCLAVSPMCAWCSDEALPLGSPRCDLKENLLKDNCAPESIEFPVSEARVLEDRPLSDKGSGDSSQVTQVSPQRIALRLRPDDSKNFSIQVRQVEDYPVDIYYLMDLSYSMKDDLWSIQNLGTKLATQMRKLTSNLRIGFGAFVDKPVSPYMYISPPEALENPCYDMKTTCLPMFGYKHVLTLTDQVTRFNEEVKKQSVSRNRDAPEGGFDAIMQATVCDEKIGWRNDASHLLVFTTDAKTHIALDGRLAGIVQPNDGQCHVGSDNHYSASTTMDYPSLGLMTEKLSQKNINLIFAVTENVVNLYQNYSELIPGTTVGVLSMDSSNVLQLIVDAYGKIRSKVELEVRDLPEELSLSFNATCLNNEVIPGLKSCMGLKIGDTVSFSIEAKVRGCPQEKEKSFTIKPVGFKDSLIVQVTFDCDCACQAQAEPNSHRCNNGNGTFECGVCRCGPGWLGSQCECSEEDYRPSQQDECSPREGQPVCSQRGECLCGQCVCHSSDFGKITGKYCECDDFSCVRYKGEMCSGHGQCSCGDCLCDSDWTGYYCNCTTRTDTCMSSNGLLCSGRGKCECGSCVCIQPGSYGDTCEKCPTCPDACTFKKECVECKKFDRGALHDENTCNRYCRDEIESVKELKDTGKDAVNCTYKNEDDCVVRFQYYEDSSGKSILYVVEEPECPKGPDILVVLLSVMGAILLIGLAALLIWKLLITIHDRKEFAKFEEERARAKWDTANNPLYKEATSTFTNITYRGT
Method: The inhibition of the binding of fibrinogen to its receptor (glycoprotein IIb/IIIa) which is brought about by the compounds according to the invention is tested on the isolated receptor, which was isolated from human thrombocytes and immobilized in microtitre plates.

[3] = molecular target: T2, fibrinogen receptor (glycoprotein IIb/IIIa) on intact, gel-filtered human thrombocytes (Homo sapiens, UniProt P05106+P08514); test: Inhibition of 125I-fibrinogen binding to its receptor (glycoprotein IIb/IIIa) on intact, gel-filtered human thrombocytes (Test method 2); conditions: intact GFP, 10 μM ADP, 40 nmol/l 125I-fibrinogen, room temperature, 30 min; read-out: Ki, inhibition of the binding of 125I-fibrinogen, ADP-stimulated
T2 construct: endogenous in cells; host or cells: human thrombocytes isolated from platelet-rich plasma by gel filtration on Sepharose 2 B
T2 sequence (P08514 32-887 limits assumed): as the sequence (P08514 32-887 limits assumed) above
T2 sequence (P08514 891-1039 partner limits assumed): as the sequence (P08514 891-1039 partner limits assumed) above
T2 sequence (P05106 27-788): as the sequence (P05106 27-788) above
Method: The inhibition of the binding of fibrinogen to its receptor (glycoprotein IIb/IIIa) by the compounds according to the invention is tested on intact, gel-filtered human thrombocytes.
For this purpose, human thrombocytes were isolated from platelet-rich plasma (PRP) by gel filtration on Sepharose 2 B. A suspension of gel-filtered platelets (GFP) was obtained which contained 4×10^8platelets/ml. […] Aliquots of 100 μl were then added onto 20% sucrose, and the platelets were sedimented by being centrifuged for 2 minutes at 12,000 revolutions per minute. The supernatant was decanted carefully and completely and the remaining sediment was measured in a gamma counter. The specific binding was ascertained by subtracting the binding in the presence of an excess (10 μM) of unlabelled fibrinogen from the total bound radioactivity.

[4] = Homo sapiens, ADP-stimulated (10 μM ADP), read-out: IC50, inhibition of thrombocyte aggregation, ADP-stimulated
[5] = Homo sapiens, Thrombin-stimulated (0.1 U/ml thrombin), read-out: IC50, inhibition of thrombocyte aggregation, Thrombin-stimulated
[6] = read-out: Ki, inhibition of the binding of 125I-fibrinogen, ADP-stimulated
[7] = ADP-stimulated (10 μM ADP), read-out: IC50, inhibition of thrombocyte aggregation, ADP-stimulated
[8] = Thrombin-stimulated (0.1 U/ml thrombin), read-out: IC50, inhibition of thrombocyte aggregation, Thrombin-stimulated
[9] = Ki, inhibition of the binding of 125I-fibrinogen, ADP-stimulated

In the case of CC1(c2ccc(C(=N)N)cc2)NC(=O)N(CC(=O)NC(CC(=O)O)c2cccc([N+](=O)[O-])c2)C1=O (racemic) [Example 39, (R,S)-3-(((R,S)-4-(4-(Aminoiminomethyl)phenyl)-4-methyl-2,5-dioxoimidazolidin-1-yl)acetylamino)-3-(3-nitrophenyl)propionic acid], the IC50 [1, 4] is reported as 80 nM, the IC50 [1, 5] is reported as 150 nM and the Ki [2, 6] is reported as 0.948 nM.
CC1(c2ccc(C(=N)N)cc2)NC(=O)N(CC(=O)NC(CC(=O)O)c2ccc(C(=O)O)cc2)C1=O (racemic) [Example 40, (R,S)-3-(((R,S)-4-(4-(Aminoiminomethyl)phenyl)-4-methyl-2,5-dioxoimidazolidin-1-yl)acetylamino)-3-(4-hydroxycarbonylphenyl)propionic acid] gave an IC50 [1, 4] of 400 nM, an IC50 [1, 5] of 250 nM and a Ki [2, 6] of 1.99 nM.
Molecule CC1(c2ccc(C(=N)N)cc2)NC(=O)N(CC(=O)NC(CC(=O)O)c2ccc(-c3ccccc3)cc2)C1=O (racemic) [Example 46, (R,S)-3-(((R,S)-4-(4-Aminoiminomethyl)phenyl)-4-methyl-2,5-dioxoimidazolidin-1-yl)acetylamino)-3-(4-phenylphenyl)propionic acid] has an IC50 [1, 4] of 100 nM, an IC50 [1, 5] of 100 nM and a Ki [2, 6] of 1.23 nM.
CC1(c2ccc(C(=N)N)cc2)NC(=O)N(CC(=O)N[C@@H](CC(=O)O)C(=O)N[C@H](C(=O)O)c2ccccc2)C1=O (single isomer, unassigned) [Example 21, ((S or R)-4-(4-(Aminoiminomethyl)phenyl)-4-methyl-2,5-dioxoimidazolidin-1-yl)acetyl-L-aspartyl-L-phenylglycine] was tested, and the IC50 [1, 7] was 800 nM, the IC50 [1, 8] was 500 nM and the Ki [2, 9] was 1.9 nM.
In the case of CC1(c2ccc(C(=N)N)cc2)NC(=O)N(CC(=O)N[C@@H](CC(=O)O)C(=O)N[C@H](C(=O)O)c2ccccc2)C1=O (single isomer, unassigned) [Example 22, ((R or S)-4-(4-(Aminoiminomethyl)phenyl)-4-methyl-2,5-dioxoimidazolidin-1-yl)acetyl-L-aspartyl-L-phenylglycine], the IC50 [1, 7] is reported as 25 nM, the IC50 [1, 8] is reported as 50 nM and the Ki [2, 9] is reported as 0.15 nM.
CC1(c2ccc(C(=N)N)cc2)NC(=O)N(CC(=O)N[C@@H](CC(=O)O)c2ccccc2)C1=O (single isomer, unassigned) [Example 57, (S)-3-(((S or R)-4-(4-Aminoiminomethyl)phenyl)-4-methyl-2,5-dioxoimidazolidin-1-yl)acetylamino)-3-phenylpropionic acid] showed an IC50 [1, 7] of 6000 nM, an IC50 [1, 8] of 5000 nM and a Ki [3] of 1970 nM. It also gave a Ki [2, 6] of 37.3 nM.
For CC1(c2ccc(C(=N)N)cc2)NC(=O)N(CC(=O)N[C@@H](CC(=O)O)c2ccccc2)C1=O (single isomer, unassigned) [Example 58, (S)-3-(((R or S)-4-(4-Aminoiminomethyl)phenyl)-4-methyl-2,5-dioxoimidazolidin-1-yl)acetylamino)-3-phenylpropionic acid], the IC50 [1, 7] was 20 nM, the IC50 [1, 8] was 25 nM and the Ki [3] was 9.2 nM. For the same molecule, the Ki [2, 6] was 0.172 nM.
Work on CC1(c2ccc(C(=N)N)cc2)NC(=O)N(CC(=O)N[C@@H](CC(=O)O)C(=O)N[C@H](C(=O)O)c2ccccc2)C1=O (stereo partly drawn) [Example 1, ((R,S)-4-(4-(Aminoiminomethyl)phenyl)-4-methyl-2,5-dioxoimidazolidin-1-yl)-acetyl-L-aspartyl-L-phenylglycine] yielded an IC50 [1, 4] of 40 nM, an IC50 [1, 5] of 50 nM and a Ki [3] of 13.2 nM. For the same molecule, the Ki [2, 6] was 0.172 nM.
Molecule CC1(c2ccc(C(=N)N)cc2)C(=O)N(CC(=O)N[C@@H](CC(=O)O)C(=O)N[C@H](C(=O)O)c2ccccc2)C(=O)N1Cc1ccccc1 (stereo partly shown) [Example 25] has an IC50 [1, 4] of 30 nM, an IC50 [1, 5] of 50 nM and a Ki [2, 6] of 0.175 nM.
Work on N=C(N)c1ccc(C2(C3CC3)NC(=O)N(CC(=O)N[C@@H](CC(=O)O)C(=O)N[C@H](C(=O)O)c3ccccc3)C2=O)cc1 (stereo partly drawn) [Example 26, ((R,S)-4-(4-(Aminoiminomethyl)phenyl)-4-cyclopropyl-2,5-dioxoimidazolidin-1-yl)acetyl-L-aspartyl-L-phenylglycine] yielded an IC50 [1, 4] of 20 nM, an IC50 [1, 5] of 40 nM and a Ki [2, 6] of 0.117 nM.
CCC1(c2ccc(C(=N)N)cc2)NC(=O)N(CC(=O)N[C@@H](CC(=O)O)C(=O)N[C@H](C(=O)O)c2ccccc2)C1=O (stereo partly drawn) [Example 27, ((R,S)-4-(4-(Aminoiminomethyl)phenyl)-4-ethyl-2,5-dioxoimidazolidin-1-yl)acetyl-L-aspartyl-L-phenylglycine] showed an IC50 [1, 4] of 25 nM, an IC50 [1, 5] of 40 nM and a Ki [2, 6] of 0.107 nM.
In the case of N=C(N)c1ccc(C2(Cc3ccccc3)NC(=O)N(CC(=O)N[C@@H](CC(=O)O)C(=O)N[C@H](C(=O)O)c3ccccc3)C2=O)cc1 (stereo partly drawn) [Example 28, ((R,S)-4-(4-(Aminoiminomethyl)phenyl)-4-benyl-2,5-dioxoimidazolidin-1-yl)acetyl-L-aspartyl-L-phenylglycine], the IC50 [1, 4] is reported as 25 nM, the IC50 [1, 5] is reported as 40 nM and the Ki [2, 6] is reported as 0.078 nM.
With CC1(c2ccc(C(=N)N)cc2)NC(=O)N(CC(=O)N[C@@H](CC(=O)O)c2ccccc2)C1=O (stereo partly drawn) [Example 56, (S)-3-(((R,S)-4-(4-(aminoiminomethyl)phenyl)-4-methyl-2,5-dioxoimidazolidin-1-yl)acetylamino)-3-phenylpropionic acid hydrochloride] the IC50 [1, 4] was 100 nM, the IC50 [1, 5] was 60 nM and the Ki [3] was 21.8 nM. It also gave a Ki [2, 6] of 0.486 nM.
